Drawing on paper PMC5363571 (Oncotarget, 2016), this text covers IC50 and inhibition for 35 compounds.

Molecules are shown by their SMILES. Structures can show the parent of a compound that is named as a salt. Some results are limits rather than exact numbers.

T1 sequence (Q93009 whole entry): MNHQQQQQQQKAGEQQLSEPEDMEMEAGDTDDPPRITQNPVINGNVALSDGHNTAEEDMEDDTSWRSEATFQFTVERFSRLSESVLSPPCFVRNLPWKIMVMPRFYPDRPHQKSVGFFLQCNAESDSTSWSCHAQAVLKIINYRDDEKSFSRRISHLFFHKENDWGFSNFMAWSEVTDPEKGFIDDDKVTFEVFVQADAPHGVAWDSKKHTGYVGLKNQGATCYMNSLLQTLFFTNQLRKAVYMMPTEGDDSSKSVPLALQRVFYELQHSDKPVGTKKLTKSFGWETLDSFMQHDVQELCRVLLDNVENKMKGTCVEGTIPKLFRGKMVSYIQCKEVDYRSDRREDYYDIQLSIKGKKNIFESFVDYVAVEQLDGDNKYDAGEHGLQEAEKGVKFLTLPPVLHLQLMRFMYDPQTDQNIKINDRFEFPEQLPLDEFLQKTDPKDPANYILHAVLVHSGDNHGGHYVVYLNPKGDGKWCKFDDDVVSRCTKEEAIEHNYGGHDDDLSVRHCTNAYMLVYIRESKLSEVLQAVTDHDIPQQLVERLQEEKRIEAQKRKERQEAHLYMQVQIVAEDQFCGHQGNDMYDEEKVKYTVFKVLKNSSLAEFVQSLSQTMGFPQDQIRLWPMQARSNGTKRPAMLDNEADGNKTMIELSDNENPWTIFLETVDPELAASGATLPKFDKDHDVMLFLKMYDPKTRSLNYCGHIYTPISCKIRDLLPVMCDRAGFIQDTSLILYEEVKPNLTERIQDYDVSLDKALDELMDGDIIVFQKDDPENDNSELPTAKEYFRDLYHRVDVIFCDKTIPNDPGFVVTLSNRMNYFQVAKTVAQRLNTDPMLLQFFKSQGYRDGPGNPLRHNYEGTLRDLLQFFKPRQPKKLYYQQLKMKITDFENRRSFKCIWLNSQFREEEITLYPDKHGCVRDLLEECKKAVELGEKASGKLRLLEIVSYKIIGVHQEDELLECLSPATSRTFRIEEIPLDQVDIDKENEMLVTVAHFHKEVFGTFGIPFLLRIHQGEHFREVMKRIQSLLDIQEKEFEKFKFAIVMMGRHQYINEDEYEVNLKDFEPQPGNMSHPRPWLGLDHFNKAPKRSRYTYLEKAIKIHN

The first test addresses T1, USP7 (Homo sapiens, UniProt Q93009). The test is described as follows: gel-based GST-UBA52 cleavage assay and Ub-AMC assay with USP7; supported by CETSA, DARTS and HA-Ub-VS competition in HO8910 lysate.
Conditions: not given
The class given is biochemical.
Consider `COC(=O)[C@]12CCC(C)(C)C[C@H]1[C@H]1C(=O)C=C3[C@@]4(C)C=C(C#N)C(=O)C(C)(C)[C@@H]4CC[C@@]3(C)[C@]1(C)CC2` [CDDO-Me], for which the concentration for half-maximal inhibition (IC50) came to 14.1 µM.

The next test deals with USP2 (Homo sapiens, UniProt O75604). Put plainly: in vitro deubiquitinase activity assay (Supplementary Figure S1).
Chain of USP2 (O75604 whole entry): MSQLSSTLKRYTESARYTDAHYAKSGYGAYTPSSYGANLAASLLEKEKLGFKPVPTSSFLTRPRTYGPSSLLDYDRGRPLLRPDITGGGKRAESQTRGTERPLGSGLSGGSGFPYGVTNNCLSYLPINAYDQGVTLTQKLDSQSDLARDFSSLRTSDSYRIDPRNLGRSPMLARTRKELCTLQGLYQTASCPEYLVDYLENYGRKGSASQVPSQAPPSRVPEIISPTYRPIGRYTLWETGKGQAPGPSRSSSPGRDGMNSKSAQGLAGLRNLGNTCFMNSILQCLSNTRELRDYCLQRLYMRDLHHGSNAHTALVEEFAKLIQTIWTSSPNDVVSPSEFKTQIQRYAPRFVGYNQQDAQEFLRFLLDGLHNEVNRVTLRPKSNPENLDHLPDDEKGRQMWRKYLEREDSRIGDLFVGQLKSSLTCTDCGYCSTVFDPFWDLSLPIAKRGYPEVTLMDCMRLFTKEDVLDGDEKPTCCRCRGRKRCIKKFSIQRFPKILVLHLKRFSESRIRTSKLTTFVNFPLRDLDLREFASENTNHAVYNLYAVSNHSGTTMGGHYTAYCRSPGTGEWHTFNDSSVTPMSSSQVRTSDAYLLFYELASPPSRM
Conditions: not given
The class given is biochemical.
As to `COC(=O)[C@]12CCC(C)(C)C[C@H]1[C@H]1C(=O)C=C3[C@@]4(C)C=C(C#N)C(=O)C(C)(C)[C@@H]4CC[C@@]3(C)[C@]1(C)CC2` [CDDO-Me], the half-inhibitory concentration (IC50) was 22.3 µM.

The target of the next test is T1, USP7. Put plainly: biochemical. Set-up: Ub-AMC hydrolysis by recombinant USP7 (20 nM), 30 min pre-incubation, fluorescence read-out. To be noted: read-out: % Inhibition at 50 μM.
`COC(=O)[C@]12CCC(C)(C)C[C@H]1[C@H]1C(=O)C=C3[C@@]4(C)C=C(C#N)C(=O)C(C)(C)[C@@H]4CC[C@@]3(C)[C@]1(C)CC2` [CDDO-Me]: the inhibition at 50 µM was determined as 91.5%.
As for `CC(=O)O[C@H]1C(=O)[C@@]2(C)[C@H]([C@H](OC(=O)c3ccccc3)[C@]3(O)C[C@H](OC(=O)[C@H](O)[C@@H](NC(=O)c4ccccc4)c4ccccc4)C(C)=C1C3(C)C)[C@]1(OC(C)=O)CO[C@@H]1C[C@@H]2O` [Taxol], the inhibition at 50 µM came out at 26.9%.
Same read-out and setting: the figure for `Cc1scc2c1N(C(=O)CN1CCN(C)CC1)c1ccccc1NC2=O` [Telenzepine 2HCl] is less than 5%; for `CN(C/C=C/C#CC(C)(C)C)Cc1cccc2ccccc12` [Terbinafine HCl] it is 8.6%.
Same read-out and setting: the figure for `CS(=O)(=O)c1ccc([C@H](O)[C@@H](COC(=O)CN)NC(=O)C(Cl)Cl)cc1` [Thiamphenicol glycinate] is less than 5%; for `CSc1ccc2c(c1)N(CCC1CCCCN1C)c1ccccc1S2` (stereo not shown) [Thioridazine HCl] it is less than 5%.
In the case of `C/N=C(/NC#N)NCCSCc1csc(NC(=N)N)n1` [Tiotidine], the inhibition at 50 µM is 11.6%.
`C[N+]1(C)[C@@H]2C[C@@H](OC(=O)C(O)(c3cccs3)c3cccs3)C[C@H]1[C@@H]1O[C@@H]12` [Tiotropium Br]: the inhibition at 50 µM is less than 5%.
Turning to `CCCCNC(=O)NS(=O)(=O)c1ccc(C)cc1` [Tolbutamide], the inhibition at 50 µM is less than 5%.
Same read-out and setting: the figure for `Cc1ccc(C(=O)c2cc(O)c(O)c([N+](=O)[O-])c2)cc1` [Tolcapone] is 28.6%; for `Cc1ccc(/C(=C\CN2CCCC2)c2ccccn2)cc1` [Trans-triprolidine HCl] it is less than 5%; for `COc1cc2c(cc1OC)-c1c/c(=N\c3c(C)cc(C)cc3C)n(C)c(=O)n1CC2` [Trequinsin HCl] it is less than 5%.
Consider `CN1CCN(CCCN2c3ccccc3Sc3ccc(C(F)(F)F)cc32)CC1` [Trifluoperazine 2HCl], for which the inhibition at 50 µM is less than 5%.
As to `O=C(CCCN1CCC(O)(c2cccc(C(F)(F)F)c2)CC1)c1ccc(F)cc1` [Trifluperidol 2HCl], the inhibition at 50 µM is less than 5%.
On the same count and under the same terms, the figure for `Cc1c(C)c2c(c(C)c1O)CCC(C)(COc1ccc(CC3SC(=O)NC3=O)cc1)O2` (stereo not shown) [Troglitazone] is 5.3%.
In the case of `CO[C@H]1C[C@H](O[C@H]2[C@H](C)[C@@H](O[C@@H]3O[C@H](C)C[C@H](N(C)C)[C@H]3OC(C)=O)[C@@H](C)C[C@@]3(CO3)C(=O)[C@H](C)[C@@H](OC(C)=O)[C@@H](C)[C@@H](C)OC(=O)[C@@H]2C)O[C@@H](C)[C@@H]1OC(C)=O` [Troleandomycin], the inhibition at 50 µM was less than 5%.
Turning to `CC(C)(C)NCC(O)c1ccccc1Cl` (stereo not shown) [Tulobuterol], the inhibition at 50 µM is 16.5%.
As to `C[C@H]1[C@H](C)CC[C@]2(C(=O)O)CC[C@]3(C)C(=CC[C@@H]4[C@@]5(C)CC[C@H](O)C(C)(C)[C@@H]5CC[C@]43C)[C@H]12` [Uosolic acid], the inhibition at 50 µM was determined as 75.2%.
On to `CCCc1nc(C)c2c(=O)nc(-c3cc(S(=O)(=O)N4CCN(CC)CC4)ccc3OCC)[nH]n12` [Vardenafil], for which the inhibition at 50 µM was less than 5%.
The same measure, in the same setting: the figure for `Clc1ccc(Nc2nnc(Cc3ccncc3)c3ccccc23)cc1` [Vatalanib] is less than 5%; for `COc1ccc(C(CN(C)C)C2(O)CCCCC2)cc1` (stereo not shown) [Venlafaxine HCl] it is less than 5%.
Turning to `COc1ccc(CCN(C)CCCC(C#N)(c2ccc(OC)c(OC)c2)C(C)C)cc1OC` (stereo not shown) [Verapamil], the inhibition at 50 µM is less than 5%.
Consider `CC[C@]1(O)C[C@H]2CN(CCc3c([nH]c4ccccc34)[C@@](C(=O)OC)(c3cc4c(cc3OC)N(C=O)[C@H]3[C@@](O)(C(=O)OC)[C@H](OC(C)=O)[C@]5(CC)C=CCN6CC[C@]43[C@@H]65)C2)C1` [Vincristine sulfate], for which the inhibition at 50 µM is less than 5%.
Consider `CC[C@]1(O)C[C@@H]2CN(CCc3c([nH]c4ccccc34)[C@@](C(=O)OC)(c3cc4c(cc3OC)N(C)[C@H]3[C@@](O)(C(N)=O)[C@H](O)[C@]5(CC)C=CCN6CC[C@]43[C@@H]65)C2)C1` [Vindesine], for which the inhibition at 50 µM was less than 5%.
The same measure, in the same setting: the figure for `CCC1=C[C@@H]2CN(C1)Cc1c([nH]c3ccccc13)[C@@](C(=O)OC)(c1cc3c(cc1OC)N(C)[C@H]1[C@@](O)(C(=O)OC)[C@H](OC(C)=O)[C@]4(CC)C=CCN5CC[C@]31[C@@H]54)C2` [Vinorelbine] is 45.3%; for `CCOC(=O)C1=C[C@]2(CC)CCCN3CCc4c(n1c1ccccc41)[C@@H]32` [Vinpocetine] it is 38.5%.
`O=C(CCCCCCC(=O)Nc1ccccc1)NO` [Vorinostat]: the inhibition at 50 µM is less than 5%.
Regarding `O=C(NCCNCC(O)COc1ccc(O)cc1)N1CCOCC1` (stereo not shown) [Xamoterol hemifumarate], the inhibition at 50 µM is less than 5%.
Still for that read-out and setting: the figure for `Cc1cccc(C)c1NC1=NCCCS1` [Xylazine HCl] is less than 5%; for `CCCOc1ccccc1-c1nc2[nH]nnc2c(=O)[nH]1` [Zaprinast] it is less than 5%; for `COc1cc(-c2ccc(=O)[nH]n2)ccc1OC(F)F` [Zardaverine] it is less than 5%.
Regarding `O=P(O)(O)C(O)(Cn1ccnc1)P(=O)(O)O` [Zoledronic acid], the inhibition at 50 µM is less than 5%.
As for `NS(=O)(=O)Cc1noc2ccccc12` [Zonisamide], the inhibition at 50 µM is less than 5%.
Turning to `CC(C)[C@H]1CC[C@H](C(=O)N[C@H](Cc2ccccc2)C(=O)O)CC1` [nateglinide], the inhibition at 50 µM is less than 5%.
The same measure, in the same setting: the figure for `CN(C)CCc1c[nH]c2ccc(C[C@H]3COC(=O)N3)cc12` [zolmitriptan] is less than 5%.

What is called IC50 is the concentration needed to halve the response being measured. Broadly, the inhibition is how much of the control response was suppressed.
